Here are results for five molecules from ChEMBL document CHEMBL1201862, “PubChem BioAssay data set” (2004).

What all share (experiment): DTP human tumour cell line panel, 48 h
The subject of assay [1] is COLO 205.
Assay [2] relates to EKVX.
The subject of assay [3] is SNB-75.
The test system of assay [4] is KM-20L2.
The test system of assay [5] is SK-MEL-5.
Assay [6] deals with UACC-62.
Assay [7] concerns OVCAR-4.
Assay [8] relates to IGROV-1.
The subject of assay [9] is HCT-15.
Assay [10] has as its system SW-620.
The subject of assay [11] is OVCAR-3.
Assay [12] relates to SF-539.
The subject of assay [13] is NCI-H226.
Assay [14] deals with HT-29.
The test system of assay [15] is HCC 2998.
Assay [16] deals with SN12C.
Assay [17] relates to M14.

The structures appear in SMILES notation.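 Cultured in 96-well plates, cells were exposed to test compound for 48 hours across five concentrations. GI50 marks 50% less growth.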 Calls of active or inactive are those of the source. No stated cut-off is given here; in the data, active = GI50 up to about 1.1 µM and inactive = higher.

Turning to `CC(=O)NC(C=O)C(O[C@H](C)C(=O)NC(C)C(=O)NC(CCC(N)=O)C(=O)OCc1ccccc1)C(O)C(O)COC(=O)CCNc1c2ccccc2nc2cccc([N+](=O)[O-])c12` (some centres undefined), the GI50 is 1.29 µM (inactive) in assay [1]; 5.7 µM (inactive) in assay [2]; 3.97 µM (inactive) in [3]; 2 µM (inactive) in assay [4]; > 100 µM (inactive) in assay [5]; 3.23 µM (inactive) in assay [6]. The GI50 in assay [7] is 12.2 µM (inactive); in assay [8], > 100 µM (inactive); in [9], 11.4 µM; in assay [10], 1.99 µM (inactive); in assay [11] it was 1.85 µM (inactive); in [12] it was 6.12 µM (inactive). In addition, the GI50 in assay [13] was 2.6 µM (inactive); in assay [14], 2.14 µM (inactive); in assay [15], 1.54 µM (inactive); in [16], 2.02 µM (inactive); in assay [17], 1.9 µM (inactive).

Take `CN1C(=O)CC(CC(=O)C2CCCCC2=O)CC1=O` (centres undefined): the GI50 in [1], in [2], in assay [3], in assay [4], in [6] and in assay [7] was > 100 µM (inactive) each time. In addition, the GI50 in assay [8], in assay [10], in assay [11], in assay [12], in assay [13] and in assay [14] was > 100 µM (inactive) each time. In addition, the GI50 in [15], in assay [16] and in assay [17] was > 100 µM (inactive) throughout.

Turning to `COc1ccc2[nH]c3c(c2c1)[C@H](c1ccccc1)C[C@@H]1C(=O)N(c2ccccc2)C(=O)[C@H]31`, the GI50 in [1] was > 100 µM (inactive); in assay [2], 89.1 µM (inactive); in assay [3], 20.7 µM (inactive); in [4], 64.9 µM (inactive); in assay [5] it was 72.9 µM (inactive); in [6], > 100 µM (inactive). Besides, the GI50 in [7] was 16.7 µM (inactive); in assay [8] it was 26.9 µM (inactive); in assay [9] it was 41.7 µM; in [10], 20.7 µM (inactive); in [11] it was 23.8 µM (inactive); in [12] it was > 100 µM (inactive). Also, the GI50 is 19.4 µM (inactive) in assay [13], 35.5 µM (inactive) in assay [15], 12.1 µM (inactive) in assay [16] and 42.3 µM (inactive) in assay [17].

As to `O=C(c1ccc(Cl)cc1Cl)C1[C@H]2C(=O)N(c3ccc(Cc4ccc(N5C(=O)[C@@H]6ON(c7ccccc7)C(C(=O)c7ccc(Cl)cc7Cl)[C@@H]6C5=O)cc4)cc3)C(=O)[C@H]2ON1c1ccccc1` (some centres undefined), the GI50 in assay [1], in assay [3], in assay [4], in assay [5], in [6] and in assay [7] was > 50 µM (inactive) each time. Further, the GI50 in assay [8] was > 50 µM (inactive); in assay [9], more than 50 µM; in assay [10] it was > 50 µM (inactive); in [11], > 50 µM (inactive); in assay [12], > 50 µM (inactive); in [13], > 50 µM (inactive). Also, the GI50 in [14], in assay [15], in assay [16] and in [17] was > 50 µM (inactive) each time.

Regarding `Cc1ccc(NC(=O)CC2SC(=N)NC2=O)cc1C` (centres undefined), the GI50 in assay [1], in assay [3], in assay [4], in assay [6], in [7] and in [8] was > 100 µM (inactive) throughout. Besides, the GI50 is more than 100 µM in [9]; > 100 µM (inactive) in [10]; > 100 µM (inactive) in [11]; > 100 µM (inactive) in [12]; > 100 µM (inactive) in assay [13]; > 100 µM (inactive) in [14]. The GI50 in assay [15] was 75 µM (inactive); in [16], > 100 µM (inactive); in [17] it was > 100 µM (inactive).
